Experimental data published in patent US9370517B2, “Substituted pyrazolopyrimidines as Akt kinase inhibitors” (Bayer Intellectual Property GmbH, priority 2012, dated 2016).
pIC50: −log10 of the molar value.

Legend:
[1] = biological target: T1, His-tagged human recombinant kinase full-length Akt1 (Homo sapiens, UniProt P31749); assay: Akt1 kinase assay (TR-FRET); type: biochemical; details: 10 μM ATP, 60 min at 22° C.; read-out: Akt1, median IC50
T1 construct: His-tagged human recombinant kinase full-length Akt1; His; purchased Invitrogen PV 3599; host or cells: insect cells
Description: Biological Assay 1.0: Akt1 Kinase Assay
Akt1 inhibitory activity of compounds of the present invention was quantified employing the Akt1 TR-FRET assay as described in the following paragraphs.
(§1) His-tagged human recombinant kinase full-length Akt1 expressed in insect cells was purchased form Invitrogen (part number PV 3599). As substrate for the kinase reaction the biotinylated peptide biotin-Ahx-KKLNRTLSFAEPG (SEQ ID NO: 1) (C-terminus in amide form) was used which can be purchased e.g. from the company Biosynthan GmbH (Berlin-Buch, Germany).
(§2) For the assay 50 nl of a 100fold concentrated solution of the test compound in DMSO was pipetted into a black low volume 384well microtiter plate (Greiner Bio-One, Frickenhausen, Germany), 2 μl of a solution of Akt1 in assay buffer [50 mM TRIS/HCl pH 7.5, 5 mM MgCl2, 1 mM dithiothreitol, 0.02% (v/v) Triton X-100 (Sigma)]were added and the mixture was incubated for 15 min at 22° C. to allow prebinding of the test compounds to the enzyme before the start of the kinase reaction. Then the kinase reaction was started by the addition of 3 μl of a solution of adenosine-tri-phosphate (ATP, 16.7 μM=>final conc. in the 5 μl assay volume is 10 μM) and substrate (1.67 μM=>final conc. in the 5 μl assay volume is 1 μM) in assay buffer and the resulting mixture was incubated for a reaction time of 60 min at 22° C. […]
(§3) The resulting mixture was incubated 1 h at 22° C. to allow the binding of the biotinylated phosphorylated peptide to the streptavidine-XL665 and the antibodies. Subsequently the amount of phosphorylated substrate was evaluated by measurement of the resonance energy transfer from the anti-mouse-IgG-Eu-Chelate to the streptavidine-XL665. Therefore, the fluorescence emissions at 620 nm and 665 nm after excitation at 350 nm was measured in a HTRF reader, e.g. a Rubystar (BMG Labtechnologies, Offenburg, Germany) or a Viewlux (Perkin-Elmer). […]

[2] = biological target: T2, His-tagged human recombinant kinase full-length Akt2 (Homo sapiens, UniProt P31751); assay: Akt2 kinase assay (TR-FRET); type: biochemical; details: 10 μM ATP, 60 min at 22° C.; read-out: Akt2, median IC50
T2 construct: His-tagged human recombinant kinase full-length Akt2; His; purchased Invitrogen PV 3975; host or cells: insect cells
Description: Biological Assay 2.0: Akt2 Kinase Assay
Akt2 inhibitory activity of compounds of the present invention was quantified employing the Akt2 TR-FRET assay as described in the following paragraphs.
as §1, with “full-length Akt2” for “full-length Akt1”, “cells and activated by PDK1” for “cells”, “purchased from” for “purchased form”, “PV 3975).” for “PV 3599).”
as §2, with “Akt2” for “Akt1”, “(Sigma)] were” for “(Sigma)]were”
as §3, with “TR-FRET” for “HTRF”

p-AKT1/2/3-S473 = assay: Cellular p-AKT1/2/3-S473 assay in KPL-4 cells; type: cell-based; details: Homo sapiens, KPL4, read-out: pAKT-S473 median IC50, 2 hours treatment, read-out: pAKT-S743 median IC50
Method: (§4) The molecular mechanism of action was investigated in a set of experiments to assess the inhibition of the PI3K-AKT-mTOR pathway in responsive cell lines such as KPL-4 breast tumour cell line (PIK3CA^H1047R, HER2^O/E and hormone independent). The phospho-substrates of PI3K-AKT-mTOR axis were used as the readouts to reflect pathway inhibition. Cells were seeded at 60-80% confluency per well in 96-well cell culture plates. After overnight incubation at 37° C. 5% CO2, cells were treated with compounds and vehicle at 37° C. for 2 hours. Thereafter, cells were lysed in 150 μl lysis buffer and the levels of phospho-AKT at 1308 and S473 and p-4E-BP1 at T70 sites were determined with the corresponding AlphaScreen® SureFire® assay kits (Perkin Elmer: 4E-BPI Assay Kit Cat # TRG4E2S10K; Akt 1/2/3 p-Ser 473 #TGRA4S500 and Akt 1/2/3 p-Thr 308 #TGRA3S500 as well as IgG detection Kit #6760617M) as described in the manuals. All measurements where at least done in duplicates and confirmed by independent repetition. Alternatively pAKT-S473 was measured using the “Akt Duplex” of the MULTI-SPOT® Assay System (Fa. Meso Scale Discovery, Cat# N41100B-1) following manufacturers instructions. Each assay used 20 μg of protein extract and measured total AKT and p-AKT content simultaneously in one well. All measurements where at least done in duplicates and confirmed by independent repetition. Values for P-AKT are expressed as percentage of P-AKT level compared to total-AKT content of the extracts.

p-4E-BP1-T70 = assay: Cellular p-4E-BP1-T70 assay in KPL-4 cells; type: cell-based; details: Homo sapiens, KPL4, 2 hours treatment, read-out: P4EBP1-T70 median IC50
Method: as §4

[3] = system: KPL-4 breast cancer cell line; assay: Tumor cell proliferation assay (CellTiter-Glo), KPL-4; type: cell-based; details: Homo sapiens, KPL4, 72 h drug exposure; for inhibition at 1.67 µM: read-out: KPL-4 median inhibition at 1.67 μM (%)
Method: (§5) Biological Assay 4.0: Tumor Cell Proliferation Assays
(§6) Compounds were tested in a cell-based assay that measures the capacity of the compounds to inhibit tumour cell proliferation following a 72 h drug exposure. Cell viability is determined using CellTiter-Glow® (CTG, Promega, cat# G7571/2/3). The CellTiter-Glo® Luminescent Cell Viability Assay is a homogeneous method to determine the number of viable cells in culture. Detection is based on using the luciferase reaction to measure the amount of ATP from viable cells. The amount of ATP in cells correlates with cell viability. Within minutes after a loss of membrane integrity, cells lose the ability to synthesize ATP, and endogenous ATPases destroy any remaining ATP; thus the levels of ATP fall precipitously.
(§7) Cells were plated at 3000-5000 cells/well (depending on the cell lines) in 90 μL growth medium on MTPs (Corning; #3603, black plate, clear flat bottom). For each cell line assayed, cells were plated onto a separate plate for determination of […] at t=0 hour and t=72 hour time points. Following overnight incubation at 37° C., chemiluminescence values for the t=0 samples were determined after adding 10 μl medium and 100 μl CTG solution according to manufacture protocol. Plates for the t=72 hour time points were treated with compounds diluted into growth medium at ten times final concentration added in 10 μL to the cell culture plate. Cells were then incubated for 72 hours at 37° C. Chemiluminescence values for the t=72 hour samples were determined. […] Experiments were controlled using a reference compound as standard.
(§8) Preferred compounds of the present invention show in this assay an inhibition of cell growth of cell lines such as the KPL-4 breast cancer cell line and the MCF-7 breast tumour cell line ([…], hormone dependent) with a median IC50 of <10 μM, more preferably, median IC50≦1 μM.

[4] = system: MCF-7 breast tumour cell line; assay: Tumor cell proliferation assay (CellTiter-Glo), MCF-7; type: cell-based; details: Homo sapiens, MCF7, 72 h drug exposure; for inhibition at 1.67 µM: read-out: MCF-7 median inhibition at 1.67 μM (%)
Method: as §5, §6, §7, §8

T2 sequence (P31751 whole entry): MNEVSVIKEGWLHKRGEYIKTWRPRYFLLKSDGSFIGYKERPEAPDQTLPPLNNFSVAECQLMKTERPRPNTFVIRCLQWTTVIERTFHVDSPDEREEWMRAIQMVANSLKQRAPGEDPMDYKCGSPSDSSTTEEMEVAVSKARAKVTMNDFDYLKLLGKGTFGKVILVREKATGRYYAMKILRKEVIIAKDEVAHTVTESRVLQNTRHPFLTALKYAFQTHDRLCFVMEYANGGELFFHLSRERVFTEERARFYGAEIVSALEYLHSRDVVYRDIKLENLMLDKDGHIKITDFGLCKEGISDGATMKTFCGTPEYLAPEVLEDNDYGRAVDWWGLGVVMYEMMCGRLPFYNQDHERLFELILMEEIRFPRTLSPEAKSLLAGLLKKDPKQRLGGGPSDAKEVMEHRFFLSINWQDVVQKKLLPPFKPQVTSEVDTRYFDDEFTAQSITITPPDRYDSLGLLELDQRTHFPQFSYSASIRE
T1 sequence (P31749 whole entry): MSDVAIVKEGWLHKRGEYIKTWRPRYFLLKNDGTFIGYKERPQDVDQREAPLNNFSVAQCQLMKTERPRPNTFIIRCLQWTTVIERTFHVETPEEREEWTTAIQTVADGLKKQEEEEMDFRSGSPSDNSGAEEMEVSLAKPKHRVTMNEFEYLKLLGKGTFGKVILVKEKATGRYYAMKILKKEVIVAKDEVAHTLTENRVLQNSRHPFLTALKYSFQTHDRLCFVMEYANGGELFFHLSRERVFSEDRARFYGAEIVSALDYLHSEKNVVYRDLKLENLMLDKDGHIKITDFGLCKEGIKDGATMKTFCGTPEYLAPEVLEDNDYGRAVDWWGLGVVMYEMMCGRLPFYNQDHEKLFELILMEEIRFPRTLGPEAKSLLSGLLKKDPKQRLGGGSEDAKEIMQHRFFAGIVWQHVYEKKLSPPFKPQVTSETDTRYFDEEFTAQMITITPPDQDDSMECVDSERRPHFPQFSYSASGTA

| pIC50 [1] | pIC50 [2] | pIC50 (p-AKT1/2/3-S473) | pIC50 (p-4E-BP1-T70) | pIC50 [3] | pIC50 [4] | Compound | inhibition at 1.67 µM [3] [%] | inhibition at 1.67 µM [4] [%] |
| --- | --- | --- | --- | --- | --- | --- | --- | --- |
| 7.18 | 6.34 | 6.89 | 5.74 | 5.72 | 5.74 | Cc1cc(C)n2nc(-c3ccc(C4(N)CCC4)cc3)c(-c3ccccc3)c2n1 [Example 1, 1-[4-(5,7-Dimethyl-3-phenylpyrazolo[1,5-a]pyrimidin-2-yl)-phenyl]cyclobutanamine] | 29.8 | 47.4 |
| 6.39 | 6.39 | 5.77 | 5.43 | 5.66 | 5.70 | CCc1cc(CC)n2nc(-c3ccc(C4(N)CCC4)cc3)c(-c3ccccc3)c2n1 [Example 2, 1-[4-(5,7-Diethyl-3-phenylpyrazolo[1,5-a]pyrimidin-2-yl)phenyl]-cyclobutanamine] | 7.1 | 24.5 |
| 6.49 | 6.07 | 5.74 | 5.48 | 5.62 | 5.70 | NC1(c2ccc(-c3nn4c(C(F)(F)F)cc(C(F)(F)F)nc4c3-c3ccccc3)cc2)CCC1 [Example 3, 1-{4-[3-Phenyl-5,7-bis(trifluoromethyl)pyrazolo[1,5-a]pyrimidin-2-yl]phenyl}cyclobutanamine] | 6.6 | 25.6 |
